# Test results reported in PMC6976569, “Structural basis of subtype-selective competitive antagonism for GluN2C/2D-containing NMDA receptors” (Nature Communications, 2020).
# Values joined by “and” are separate entries in the source; they are usually repeats but may differ in a detail not shown here. Identical values can stand only once.
# Tests used:
# GluN1-4a/GluN2D NMDARs [1] = target: T1, GluN1-4a/GluN2D NMDARs (Rattus norvegicus, UniProt P35439+Q62645); assay: TEVC electrophysiology on Xenopus laevis oocytes expressing GluN1-4a/GluN2D; assay type: cell-based; settings: for Ki: 100 μM glycine, 1 or 3 μM L-glutamate
# T1 construct: expressed in transfected cells; host or cells: Xenopus laevis oocytes injected with cRNA
# Description: (§1) The chemical definition of UBP791 used in this study is a cis-racemic mixture of (2S,3R)- and (2R,3S)-isomers.
# (§2) Plasmids (pSP or pCI_NEO) harboring rat GluN1 or GluN2 full-length subunits were linearized by restriction digestion and transcribed according to the manufacturer’s instructions (mMESSAGE mMachine SP6 or T7 kit, ThermoFisher Scientific). Recombinant rat GluN1-4a and GluN2 were expressed by co-injecting cRNA at a 1:2 (w/w) ratio into defolliculated X. laevis oocytes (amounts varied from 0.05–25 ng per oocyte). Two-electrode voltage-clamp recordings were performed 1–3 days after injection using agarose-tipped microelectrodes (0.4–1.2 MΩ) filled with 3 M KCl at a holding potential of −60 mV. The bath solution contained 5 mM HEPES, 100 mM NaCl, 0.3 mM BaCl2, 10 mM Tricine, at pH 7.4 (adjusted with KOH). […] For the statistical evaluation, we implemented pairwise F-tests to test variances, and then performed the Student t test with equal or unequal variances as determined previously, and accounted for multiple testing with the Bonferroni correction.
# GluN1-4a/GluN2D NMDARs [2] = target: T2, GluN1-4a/GluN2D NMDARs (Rattus norvegicus, UniProt Q62645); assay: as above; assay type: cell-based
# T2 construct: expressed in transfected cells; host or cells: Xenopus laevis oocytes injected with cRNA
# Description: as §1, §2
# GluN1-4a/GluN2B NMDARs [3] = target: T3, GluN1-4a/GluN2B NMDARs (Rattus norvegicus, UniProt P35439+Q00960); assay: TEVC electrophysiology on Xenopus laevis oocytes expressing GluN1-4a/GluN2B; assay type: cell-based
# T3 construct: expressed in transfected cells; host or cells: Xenopus laevis oocytes injected with cRNA
# Description: as §1, §2
# GluN1-4a/GluN2B NMDARs [4] = target: T4, GluN1-4a/GluN2B NMDARs (Rattus norvegicus, UniProt Q00960); assay: as above; assay type: cell-based; settings: for fold difference of Ki vs. 2D (GluN2B): Ki GluN2B relative to Ki GluN2D (WT)
# T4 construct: expressed in transfected cells; host or cells: Xenopus laevis oocytes injected with cRNA
# Description: as §1, §2
# GluN1-4a/GluN2A NMDARs [5] = target: T5, GluN1-4a/GluN2A NMDARs (Rattus norvegicus, UniProt Q00959); assay: TEVC electrophysiology on Xenopus laevis oocytes expressing GluN1-4a/GluN2A; assay type: cell-based; settings: for fold difference of Ki vs. 2D (GluN2A): Ki GluN2A relative to Ki GluN2D (WT)
# T5 construct: expressed in transfected cells; host or cells: Xenopus laevis oocytes injected with cRNA
# Description: as §1, §2
# GluN1-4a/GluN2A NMDARs [6] = target: T6, GluN1-4a/GluN2A NMDARs (Rattus norvegicus, UniProt P35439+Q00959); assay: as above; assay type: cell-based; settings: for Ki: Cheng–Prusoff from IC50 and L-glutamate EC50, 100 μM glycine, 1 or 3 μM L-glutamate
# T6 construct: expressed in transfected cells; host or cells: Xenopus laevis oocytes injected with cRNA
# Description: as §1, §2
# [7] = target: T7, GluN1-4a/GluN2A-4m NMDAR (Ala414Arg, Lys738Met, Gly740Arg, Arg741Lys) (Rattus norvegicus, UniProt Q00959, A414R/G740R/K738M/R741K); assay: TEVC electrophysiology on oocytes expressing GluN1-4a/GluN2A-4m mutant; assay type: cell-based; settings: Ki GluN2A-4m relative to Ki GluN2D (WT)
# T7 construct: we incorporated the mutations, Ala414Arg, Lys738Met, Gly740Arg, and Arg741Lys, in the full-length GluN2A (GluN2A-4m); expressed in transfected cells; host or cells: Xenopus laevis oocytes injected with cRNA
# Description: (§3) Our previous structure of the GluN1–GluN2A LBD complexed to PPDA unambiguously mapped the antagonist-binding site at the cleft of the bilobe architecture of the GluN2 LBD (PDB: 4NF6). […] In this study, we focus on the comparison between the GluN2A and GluN2D subunits, since sequence and functional similarities between GluN2A and GluN2B and between GluN2C and GluN2D are high. Near the PPDA-binding pocket in the GluN2A LBD (Fig. 3a), the primary sequences across the GluN2A-D subunits are mostly identical except for four residues, GluN2A-Ala414, Lys738, Gly740, and Arg741, which are Arg, Met, Arg, and Lys residues in GluN2D, respectively (Fig. 3a; yellow residues and arrows in the sequence alignment). GluN2A-Ala414 is located in the D1-lobe, whereas GluN2A-Lys738, Gly740, and Arg741 are on Helix H in the D2-lobe proximal to the predicted binding site for the carboxyethyl group of UBP791. These residues are completely conserved among human, rat, and chicken, though GluN2A-Ala414 and -Lys738 are not conserved in X. laevis (frog) and Danio rerio (zebrafish) (Supplementary Fig. 1).
# as §2
# [8] = target: T8, GluN1-4a/GluN2A-4m NMDAR (Ala414Arg, Lys738Met, Gly740Arg, Arg741Lys) (Rattus norvegicus, UniProt P35439+Q00959, A414R/G740R/K738M/R741K); assay: as above; assay type: cell-based
# T8 construct: we incorporated the mutations, Ala414Arg, Lys738Met, Gly740Arg, and Arg741Lys, in the full-length GluN2A (GluN2A-4m); expressed in transfected cells; host or cells: Xenopus laevis oocytes injected with cRNA
# Description: as §3, §2
# GluA1 = GluA1 (Homo sapiens, UniProt P42261); assay: Glutamate-stimulated Ca2+-influx fluorescence assay in HEK293 cells, GluA1; assay type: cell-based; settings: for IC50: HEK293 cells, glutamate-stimulated Ca2+-influx
# Protocol: HEK293 cell lines stably expressing homomeric glutamate receptors (GluA1, GluK1 and GluK2) were obtained from Eli Lilly and grown in DMEM (ThermoFisher) supplemented with 10% v/v fetal bovine serum (Sigma), 2 mM Glutamax™ (Gibco), 100 U/mL penicillin, 100 µg streptomycin and 250 ng amphotericin B (Sigma) in 5% CO2 at 37 °C. Cells were passaged using TrypLE (Gibco) as required before confluency and periodically treated with selection antibiotics (GluK1, GluK2 hygromycin B, 200 µg/mL; GluA1 geneticin™, 200 µg/mL).
# Calcium influx fluorescence assay
# 100k cells/well were seeded into a 96-well plate precoated with poly-L-lysine and incubated for 12-16 hours until fully confluent. The cell monolayer was washed twice with 100 µL Hanks Balanced Salt Solution supplemented with 5 mM CaCl2 and 20 mM HEPES (sHBSS), then incubated for 2-4 hours with 100 µL working solution of Ca6 dye (Molecular Devices) supplemented with a desensitization blocker (GluK1, GluK2 0.25 mg/mL concanavalin A, Sigma; GluA1 100 µM cyclothiazide, Sigma). The time resolved fluorescence was recorded in a Flexstation 3 instrument (Molecular Devices). For each individual reading, the initial fluorescence of the well was measured for 20 seconds, after which the desired concentration of […]
# response is measured as the peak change in fluorescence upon addition of agonist. The viability of the cells was confirmed by determination of the concentration-response curve to the L-glutamate agonist and a standard antagonist for each plate. Readings of antagonists used the […]
# Fluorescence traces were performed in […]
# triplicate on each plate and Ki values were determined on a plate-by-plate basis. Separate experiments (n) were performed on different passages of cells. […]
# [9] = Water solubility (statement); assay type: physicochemical; settings: authors' statement in peer review file
# [10] = inhibition dose-response, 100 μM glycine, 1 or 3 μM L-glutamate
# [11] = normalized response at 30 µM compound
# [12] = normalized response at 100 µM compound
# T4 sequence (Q00960 27-1482, other chains not shown): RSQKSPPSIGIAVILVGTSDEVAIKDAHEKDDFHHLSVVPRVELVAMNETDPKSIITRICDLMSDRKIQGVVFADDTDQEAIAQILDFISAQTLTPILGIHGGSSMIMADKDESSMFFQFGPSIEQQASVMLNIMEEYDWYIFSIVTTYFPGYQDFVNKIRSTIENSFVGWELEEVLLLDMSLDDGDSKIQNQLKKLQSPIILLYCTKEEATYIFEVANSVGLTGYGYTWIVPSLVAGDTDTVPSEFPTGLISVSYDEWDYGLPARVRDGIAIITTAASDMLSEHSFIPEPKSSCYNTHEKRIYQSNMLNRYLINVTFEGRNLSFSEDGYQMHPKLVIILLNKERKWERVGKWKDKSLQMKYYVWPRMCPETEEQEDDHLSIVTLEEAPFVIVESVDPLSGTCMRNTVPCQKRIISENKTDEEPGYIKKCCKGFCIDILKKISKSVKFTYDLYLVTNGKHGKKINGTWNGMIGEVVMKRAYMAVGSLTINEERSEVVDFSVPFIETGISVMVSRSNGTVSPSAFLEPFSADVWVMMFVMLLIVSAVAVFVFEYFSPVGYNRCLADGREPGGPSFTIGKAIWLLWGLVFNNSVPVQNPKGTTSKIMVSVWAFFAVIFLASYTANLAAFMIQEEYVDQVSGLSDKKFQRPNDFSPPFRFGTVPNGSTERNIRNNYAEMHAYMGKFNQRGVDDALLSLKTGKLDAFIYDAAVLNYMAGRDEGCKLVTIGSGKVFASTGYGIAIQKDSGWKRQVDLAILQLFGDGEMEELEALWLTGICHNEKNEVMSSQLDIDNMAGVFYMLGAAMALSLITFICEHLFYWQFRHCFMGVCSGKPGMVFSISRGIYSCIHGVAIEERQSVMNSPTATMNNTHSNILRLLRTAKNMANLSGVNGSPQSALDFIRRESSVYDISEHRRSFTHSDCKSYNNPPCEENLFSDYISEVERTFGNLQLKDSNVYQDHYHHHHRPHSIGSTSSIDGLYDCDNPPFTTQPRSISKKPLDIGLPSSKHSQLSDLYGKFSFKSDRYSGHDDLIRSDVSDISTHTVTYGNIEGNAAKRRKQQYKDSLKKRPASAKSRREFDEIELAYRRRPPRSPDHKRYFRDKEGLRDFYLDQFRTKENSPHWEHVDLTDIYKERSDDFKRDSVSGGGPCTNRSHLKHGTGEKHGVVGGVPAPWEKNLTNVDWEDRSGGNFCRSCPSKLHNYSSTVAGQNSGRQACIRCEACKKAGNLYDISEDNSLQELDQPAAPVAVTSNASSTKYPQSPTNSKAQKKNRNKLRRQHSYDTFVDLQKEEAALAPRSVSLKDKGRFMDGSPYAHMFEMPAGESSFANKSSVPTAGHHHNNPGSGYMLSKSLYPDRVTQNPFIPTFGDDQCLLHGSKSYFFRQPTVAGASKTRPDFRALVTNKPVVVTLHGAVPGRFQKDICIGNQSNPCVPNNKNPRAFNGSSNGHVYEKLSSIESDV
# T6 sequence (Q00959 23-1464, other chains not shown): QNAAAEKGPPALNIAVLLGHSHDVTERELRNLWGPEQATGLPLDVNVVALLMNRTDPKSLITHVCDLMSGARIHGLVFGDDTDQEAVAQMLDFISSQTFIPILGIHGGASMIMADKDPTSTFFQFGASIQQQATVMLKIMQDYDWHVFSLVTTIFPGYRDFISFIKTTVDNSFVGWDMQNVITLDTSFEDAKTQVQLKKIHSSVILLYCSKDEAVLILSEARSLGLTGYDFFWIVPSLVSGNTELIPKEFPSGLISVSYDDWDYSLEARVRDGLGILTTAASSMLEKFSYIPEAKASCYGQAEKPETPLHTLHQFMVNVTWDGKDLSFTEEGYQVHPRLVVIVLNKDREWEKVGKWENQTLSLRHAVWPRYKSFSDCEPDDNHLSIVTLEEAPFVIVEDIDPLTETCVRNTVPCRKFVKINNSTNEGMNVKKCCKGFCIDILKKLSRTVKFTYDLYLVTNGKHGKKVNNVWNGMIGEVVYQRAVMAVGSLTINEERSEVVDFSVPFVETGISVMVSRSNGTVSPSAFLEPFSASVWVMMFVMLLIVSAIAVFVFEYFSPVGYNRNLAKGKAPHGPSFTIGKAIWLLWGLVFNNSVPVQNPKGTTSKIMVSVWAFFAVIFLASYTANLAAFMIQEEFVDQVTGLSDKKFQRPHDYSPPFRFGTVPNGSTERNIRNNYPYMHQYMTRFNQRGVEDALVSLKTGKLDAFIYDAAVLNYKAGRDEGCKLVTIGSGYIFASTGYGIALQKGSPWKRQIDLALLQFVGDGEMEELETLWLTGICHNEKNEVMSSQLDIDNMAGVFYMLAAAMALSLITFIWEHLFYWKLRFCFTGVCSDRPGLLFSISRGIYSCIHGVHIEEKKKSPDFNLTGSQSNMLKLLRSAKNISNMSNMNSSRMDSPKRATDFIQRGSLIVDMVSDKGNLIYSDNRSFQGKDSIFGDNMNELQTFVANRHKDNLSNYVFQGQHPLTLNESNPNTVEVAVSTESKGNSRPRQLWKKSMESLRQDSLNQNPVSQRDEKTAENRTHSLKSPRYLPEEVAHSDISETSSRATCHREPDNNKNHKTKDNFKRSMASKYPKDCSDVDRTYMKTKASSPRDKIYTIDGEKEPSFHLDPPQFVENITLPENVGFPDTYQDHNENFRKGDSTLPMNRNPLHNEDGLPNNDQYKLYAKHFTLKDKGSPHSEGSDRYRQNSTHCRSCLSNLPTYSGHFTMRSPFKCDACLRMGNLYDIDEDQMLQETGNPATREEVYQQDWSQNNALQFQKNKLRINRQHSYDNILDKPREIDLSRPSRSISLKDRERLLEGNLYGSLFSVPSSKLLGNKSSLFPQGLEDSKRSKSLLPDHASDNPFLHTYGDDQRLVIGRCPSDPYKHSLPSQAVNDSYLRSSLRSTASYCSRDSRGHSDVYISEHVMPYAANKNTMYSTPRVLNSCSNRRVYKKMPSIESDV
# T5 sequence (Q00959 23-1464, other chains not shown): as above
SMILES,Ki (GluN1-4a/GluN2D NMDARs [1]; Cheng–Prusoff),Ki (GluN1-4a/GluN2B NMDARs [3]) [nM],fold difference of Ki vs. 2D (GluN2B) (GluN1-4a/GluN2B NMDARs [4]),fold difference of Ki vs. 2D (GluN2A) (GluN1-4a/GluN2A NMDARs [5]),Ki (GluN1-4a/GluN2A NMDARs [6]),fold difference of Ki vs. 2D (GluN2A-4m) [7],Ki [8] [nM],IC50 (GluA1) [nM],Mean Response (GluA1; [11]) [%],Mean Response (GluA1; [12]) [%],water solubility relative to PPDA [9],further results
"O=C(O)CCc1ccc2c(ccc3cc(C(=O)N4CCN[C@@H](C(=O)O)[C@H]4C(=O)O)ccc32)c1 (relative stereo) [UBP791, (2S*,3R*)-1-(7-(2-carboxyethyl)phenanthrene-2-carbonyl)piperazine-2,3-dicarboxylic acid]",80 to 90 nM,1380 ± 360,~ 16 fold,~ 47 fold,4070 nM and ~4000 nM,~ 8 fold,710 ± 140,> 100000,94.1,86.0,more water soluble than PPDA,IC50 (GluN1-4a/GluN2D NMDARs [1]): 560 ± 10 nM; Ki (GluN1-4a/GluN2D NMDARs [1]; Cheng–Prusoff from IC50 and L-glutamate EC50): 90 ± 20 nM; Hill coefficient (nH) (GluN1-4a/GluN2D NMDARs [2]; [10]): 1.40 ± 0.02; GluN2C/2D-selectivity over GluN2B (GluN1-4a/GluN2B NMDARs [4]; ratio of Ki values): 16 fold; Hill coefficient (nH) (GluN1-4a/GluN2A NMDARs [5]; [10]): 1.19 ± 0.07; GluN2C/2D-selectivity over GluN2A (GluN1-4a/GluN2A NMDARs [5]; ratio of Ki values): 47 fold; IC50 (GluN1-4a/GluN2A NMDARs [6]): 6310 ± 400 nM
"O=C(O)C=Cc1ccc2c(ccc3cc(C(=O)N4CCN[C@@H](C(=O)O)[C@H]4C(=O)O)ccc32)c1 (relative stereo) [UBP1700, (2S*,3R*)-1-(7-(2-carboxyvinyl)phenanthrene-2-carbonyl)piperazine-2,3-dicarboxylic acid]",7 nM and 7 to 9 nM,350 ± 50,~ 52 fold and 52 fold,~ 64 fold,430 ± 40 nM,~ 7 fold,50,> 100000,105.1,101.8,more water soluble than PPDA,"fold higher affinity on GluN2D compared to UBP145 and UBP161 (GluN1-4a/GluN2D NMDARs [2]; peer review file, authors' response): > 140 fold; selectivity for GluN2C over GluN2B (GluN1-4a/GluN2B NMDARs [4]; ratio of Ki values): 40 fold; selectivity for GluN2C over GluN2A (GluN1-4a/GluN2A NMDARs [5]; ratio of Ki values): 50 fold"
